Assay results as given in US20200222418A1, “USE OF PHENOTHIAZINE DERIVATIVE IN THE TREATMENT OF INFECTION CAUSED BY BACTERIA CARRYING TYPE IV PILI” (priority 2017, published 2020).

What was measured:
[1] = tested on: HDMECs infected with N. meningitidis Nm2C4.3; test: Basement membrane (Gelatin-FITC matrix) degradation by infected endothelial cells; assay type: cell-based, human; details: 150 μg/ml Gentamicin, 24 h post-infection
Experimental: (A) Experimental procedure: HBMECs grown on a fluorescent matrix (Gelatin-Fitc) were colonized by N. meningitidis for 6 h. They were then treated with 150 μg/ml gentamicin for 1 h, then 15 min with Trifluoperazine (50 μM) (or solvent alone as control) and incubated for further 15 h in the presence of 150 μg/ml gentamicin. (B) Fluorescence microscopy was used to visualize cells stained with labelled phalloidin and the fluorescent matrix. The presence of dark zones corresponds to zones of matrix degradation. (C) Quantification of the percentage of matrix degradation, using Image J software.
Plastic coverslips (13 mm diameter) (Nalgen #174950) were washed in ethanol 70%, dried then coated with poly-L-lysine 1 mg/ml for 20 min at room temperature. After one wash in sterile PBS, 0.5% Glutaraldehyde was added for 15 min at room temperature. After three washes in PBS, Gelatin-FITC (0.2 mg/ml Invitrogen #G13187) was added for 10 minutes at room temperature in the dark. Coverslip were then washed with sterile PBS and treated with 5 mg/ml sodium borohydride for 3 min. After three washes in sterile PBS, 10^5 HDMECs (PromoCell #C-12210) were seeded per well in their PromoCell culture medium and incubated overnight at 37° C. 5% CO2. The day after, cells were infected with N. meningitidis Nm2C4.3, as above described. […] Quantifications were performed using ImageJ software (NIH).

[2] = tested on: Nm2C4.3 colonization of human brain vessels; parameters: species or system Neisseria meningitidis; details: 40 μM for 30 min
Experimental: A. Immunofluorescence analysis of CD31 (green), N. meningitidis colonies (red) and nucleus (blue) in the cortical region of serial brain sections from the same donor infected with Nm2C4.3 wild-type strain for 1 h, then treated with Trifluoperazine (40 μM for 30 min) or PBS alone, as a control. Scale bars, 20 μm. Images are representative of 2 different human brain sections. B. Mean±s.e.m. of the vascular colonization index. Analysis of 50 sections per brain section, n=2 sections per condition. ***P<0.001, one-way ANOVA.
In situ infection of fresh human brain sections was performed as described previously (Bernard et al, 2014). […] Adherent meningococci were detected by immunofluorescence analysis: brain sections were incubated with the following primary antibodies for 2 h in PBS/BSA 0.1%: monoclonal anti-human CD31/PECAM-1 mouse monoclonal antibody (clone HEC7, ABCAM, ab119339) and a rabbit polyclonal serum anti-Nm 2C4.3 strain (1:3000). […] Entire samples were scanned using a Lamina (Perkin Helmer) and were further analysed using confocal microscopy (spinning disk Leica, 63x). Quantification analysis of the images (n=50 per section) was performed using ImageJ software (NIH). […]

[3] = tested on: Nm2C4.3 microcolonies on HCMEC/D3 human brain endothelial cell line; test: Dispersion of meningococcal microcolonies on human brain endothelial cells; assay type: cell-based, Neisseria meningitidis; details: 10-40 μM, 30 min
Experimental: A. HBMEC were infected with Nm2C4.3 for 1 h 30, treated with Trifluoperazine (10-40 μM) for 30 minutes, before fixation and immunofluorescence analysis using anti-Nm2C4.3 antibody and Alexa Fluor 633 Phalloidin. B. Quantification of the bacterial colonization was performed using Image J software.
HCMEC/D3, a well-established human brain endothelial cell line (Weksler et al, 2013) was grown in EBM-2 basal medium (Lonza, Walkersville, Md., USA) supplemented with 5% Fetal Bovine Serum “Gold”, 10 mM HEPES (PM Laboratories GmbH, Pasching, Austria), 1% Penicillin-Streptomycin, 1% chemically defined lipid concentrate (Invitrogen Ltd, Paisley, UK), 1.4 μM hydrocortisone, 5 μg·ml^−1 ascorbic acid and 1 ng·ml^−1 bFGF (Sigma-Aldrich, St. Louis, Mo.). Cells were grown on Thermanox coverslips coated with rat collagen I for 4 days at 37° C. in a humidified incubator in 5% CO2. Cells were then infected with a suspension of Nm2C4.3 (˜10^7 CFU/ml) in EBM2/FBS during 30 minutes to allow bacterial adhesion. Cells were then washed three times with medium to remove non-adherent bacteria and infection was pursued for 1 h 30: adherent bacteria grew at the endothelial cell surface and formed micro-colonies. Trifluoperazine was then added to obtain final concentrations of 10, 20, 30 and 40 μM. […] Quantification was done with ImageJ software (NIH). […]

[4] = tested on: Enteropathogenic Escherichia coli (EPEC ΔescN-GFP) microcolonies on HBMEC; test: Dispersion of EPEC microcolonies on HBMEC; assay type: cell-based; details: 10 to 50 μM, 30 min
Experimental: Human […] microvascular endothelial cells (HBMEC) were infected with a GFP-expressing mutant Enteropathogenic Escherichia coli, which lacks the ATPase escN (EPEC ΔescN-GFP) for 2 h, then treated with Trifluoperazine (10-50 μM) for 30 minutes, before fixation and immunofluorescence analysis using Alexa Fluor 633 Phalloidin. (A) Representative fluorescence microscopy showing bacterial colony (white dots) formed at the surface of the endothelial cells. (B) Quantification of the bacterial colonization was performed using Image J software.
HBMEC were grown on Thermanox coverslips coated with gelatin 2% for 2 days to reach confluency. Cells were then infected for 1 h with a GFP-expressing mutant Enteropathogenic Escherichia coli (EPEC), which lacks the ATPase escN. This strain is unable to translocate effector proteins and is more prone to form pilus-dependent microcolony at the host cell surface (Jensen et al., 2015). Cells were then washed three times with medium to remove non-adherent bacteria and infection was pursued for 1 extra hour, to allow bacterial growth at the endothelial cell surface to form microcolonies. Trifluoperazine was then added to obtain final concentrations of 10, 20, 30 and 50 μM. After incubation for 30 minutes, cells were washed and fixed in 4% Paraformaldehyde for 10 min, washed three times with PBS. […] Quantification was done with ImageJ software (NIH). […]

Structure (SMILES) | degradation of the basement membrane [1] | dispersal of meningococcal microcolonies in infected brain sections [2] | dispersion of meningococcal microcolonies at the surface of human brain endothelial cells [3] | dispersion of EPEC microcolonies at the endothelial cell surface [4]
CN[C@@H]1[C@@H](O)C(O[C@@H]2[C@@H](O)[C@H](O[C@H]3O[C@H]([C@@H](C)NC)CC[C@H]3N)[C@@H](N)C[C@H]2N)OC[C@]1(C)O (stereo partly drawn) [Gentamicin, (3R,4R,5R)-2-{[(1S,2S,3R,4S,6R)-4,6-diamino-3-{[(2R,3R,6S)-3-amino-6-[(1R)-1-(methylamino)ethyl]oxan-2-yl]oxy}-2-hydroxycyclohexyl]oxy}-5-methyl-4-(methylamino)oxane-3,5-diol] | about 20% |  |  | 
CN1CCN(CCCN2c3ccccc3Sc3ccc(C(F)(F)F)cc32)CC1 [Trifluoperazine] |  | induced the dispersal | induced their dispersion | induced the dispersion of these microbial colonies in a dose-dependent manner
